3 compounds from ChEMBL document CHEMBL1133204, “Synthesis and biological activities of an alpha-methyl and a beta-methyl carbapenem and the corresponding unsubstituted compound” (Bioorg Med Chem Lett, 2000) can be followed below.

Series [1] concerns Enterobacter cloacae. Briefly: Minimum inhibitory concentration against Enterobacter cloacae in DIFCO nutrient agar after 18 h incubation period at 37 degree C. The format is functional.
Series [2] deals with Staphylococcus aureus. Briefly: Minimum inhibitory concentration against Staph 25768 in DIFCO nutrient agar after 18 hr incubation period at 37 degree C. It is filed as functional.
The subject of series [3] is Enterococcus sp. Kind of series: Minimum inhibitory concentration against Enterobacter coccus in DIFCO nutrient agar after 18 hr incubation period at 37 degree C. It is filed as functional.
For series [4], the system named is Escherichia coli. Kind of series: Minimum inhibitory concentration against Escherichia coli 205 TEM in DIFCO nutrient agar after 18 hr incubation period at 37 degree C. It is filed as functional.
For series [5], the system named is Staphylococcus aureus. Briefly: Minimum inhibitory concentration against Staphylococcus aureus in DIFCO nutrient agar after 18 hr incubation period at 37 degree C. The format is functional.
Series [6] has as its target Beta-lactamase TEM (Escherichia coli, UniProt P62593). Briefly: Beta-Lactamase inhibition activity after 15 min of pre-incubation with the enzyme isolated from Escherichia coli 205 TEM.
Series [7] deals with Beta-lactamase (Enterobacter cloacae, UniProt P05364). Kind of series: Beta-Lactamase inhibition activity after 15 min of pre-incubation with the enzyme isolated from Enterobacter cloacae.
Sequence of Beta-lactamase (P05364 whole entry): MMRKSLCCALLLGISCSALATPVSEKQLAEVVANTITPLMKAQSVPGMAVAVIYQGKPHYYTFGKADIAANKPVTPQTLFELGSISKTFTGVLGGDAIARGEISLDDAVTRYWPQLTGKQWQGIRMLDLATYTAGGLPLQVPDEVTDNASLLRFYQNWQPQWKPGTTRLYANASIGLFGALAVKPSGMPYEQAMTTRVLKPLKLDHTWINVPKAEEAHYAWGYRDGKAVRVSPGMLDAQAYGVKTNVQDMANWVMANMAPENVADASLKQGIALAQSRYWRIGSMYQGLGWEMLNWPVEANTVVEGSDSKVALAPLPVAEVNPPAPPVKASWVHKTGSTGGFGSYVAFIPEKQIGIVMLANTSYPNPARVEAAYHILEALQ
Series [8] in a line: Minimum inhibitory concentration against S. Innsbruck in DIFCO nutrient agar after 18 h incubation period at 37 degree C.
In series [9] the test system is Staphylococcus aureus. Kind of series: Minimum inhibitory concentration against Staphylococcus aureus 1104 in DIFCO nutrient agar after 18 hr incubation period at 37 degree C. It is filed as functional.
For series [10], the system named is Pseudomonas aeruginosa. Kind of series: Minimum inhibitory concentration against Pseudomonas aeruginosa. res in DIFCO nutrient agar after 18 hr incubation period at 37 degree C. The format is functional.
The nature of series [11]: Half life of hydrolysis of compound at pH 7.4, 37 degree C. It is filed as ADME. Particulars: buffer.
Series [12] deals with Pseudomonas aeruginosa. Briefly: Minimum inhibitory concentration against Pseudomonas aeruginosa in DIFCO nutrient agar after 18 hr incubation period at 37 degree C. It is filed as functional.
Series [13] relates to Escherichia coli. Briefly: Minimum inhibitory concentration against Escherichia coli 1103 in DIFCO nutrient agar after 18 hr incubation period at 37 degree C. It is filed as functional.
Series [14] relates to Staphylococcus aureus. Briefly: Minimum inhibitory concentration against Staphylococcus aureus res in DIFCO nutrient agar after 18 hr incubation period at 37 degree C. It is filed as functional.

Sequence of Beta-lactamase TEM (P62593 whole entry): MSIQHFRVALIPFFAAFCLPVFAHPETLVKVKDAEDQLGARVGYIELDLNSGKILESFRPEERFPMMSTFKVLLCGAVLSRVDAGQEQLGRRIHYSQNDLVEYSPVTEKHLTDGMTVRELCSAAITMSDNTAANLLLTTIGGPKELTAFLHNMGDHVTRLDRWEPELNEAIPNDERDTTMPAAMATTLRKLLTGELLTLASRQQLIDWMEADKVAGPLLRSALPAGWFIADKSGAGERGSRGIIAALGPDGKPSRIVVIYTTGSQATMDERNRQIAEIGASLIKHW

With `COC1=C(C(=O)[O-])N2C(=O)[C@H]([C@@H](C)O)C2[C@@H]1C.[K+]` (some centres undefined), the MIC in series [1] was 25 µg/mL; in series [2], 5 µg/mL; in [3] it was > 50 µg/mL; in series [4], 5 µg/mL; in series [5], 1 µg/mL; in series [8], > 50 µg/mL. Moreover, the MIC in [9] was < 0.5 µg/mL; in series [10], > 50 µg/mL; in series [12], > 50 µg/mL; in series [13], 10 µg/mL. The IC50 worked out at 0.23 µM in series [6] (read-out: IC50) and 0.082 µM in [7]. The same compound had a half-life in series [11] of 3.25 h.
With `COC1=C(C(=O)[O-])N2C(=O)[C@H]([C@@H](C)O)C2[C@H]1C.[K+]` (some centres undefined), the MIC in series [1] is 5 µg/mL; in series [2], > 50 µg/mL; in [3] it was > 50 µg/mL; in [4], 0.5 µg/mL; in series [8], > 50 µg/mL; in [9] it was 25 µg/mL. Further, the MIC in series [10] is > 50 µg/mL; in [12] it was > 50 µg/mL; in [14], 25 µg/mL; in series [13] it was 1 µg/mL. Further, the figures for the IC50 in series [6] (read-out: IC50) and in series [7] were 0.13 µM and 2.1 µM, respectively. Also, the half-life in series [11] is 72 h.
Regarding `COC1=C(C(=O)[O-])N2C(=O)[C@H]([C@@H](C)O)[C@H]2C1.[K+]`, the MIC in series [1] was determined as 5 µg/mL; in series [2], 5 µg/mL; in series [3], 50 µg/mL; in series [4], 1 µg/mL; in series [8], 25 µg/mL; in series [9], 1 µg/mL. Besides, the MIC is > 50 µg/mL in series [10], > 50 µg/mL in series [12], 2 µg/mL in [14] and 2 µg/mL in series [13]. Also, the results for the IC50 in series [6] and in series [7] were 0.00034 M l-1 and 0.51 µM, respectively. In addition, the half-life in series [11] is 5.75 h.
